Among the data in patent US20240316017A1, “NOVEL PYRIDINE DERIVATIVE COMPOUND AS RON INHIBITOR” (LG CHEM, LTD., priority 2021, published 2024) are IC50 values, retold here.

For one experiment, the target named is RON (Homo sapiens, UniProt Q04912). The experiment is described as follows: Evaluation of inhibitory activity against RON (TR-FRET kinase assay). The note with it: RON protein, ULight-labeled Poly GT substrate. The format is biochemical. As for the experimental part:
In order to measure the inhibitory activity of each of the compounds of Examples against RON, the IC50 of each of the compounds was measured using Time-resolved fluorescence energy transfer (TR-FRET).
Specifically, the compound was prepared to a concentration of 1 mM in 100% DMSO and was diluted 10 times in a stepwise manner through 3-fold dilution. The compound (2 ul) diluted in a stepwise manner was added to a 96-well-plate containing 48 ul of a 1× kinase reaction buffer (50 mM HEPES (pH 7.4), 0.01% Tween-20, 5 mM DTT, 0.5 mM Na3VO4, 2 mM EGTA, 10 mM MgCl2).
The RON protein was diluted to a concentration of 49.3 nM in a RON storage buffer (50 mM Tris-HCl (pH 7.5), 150 mM NaCl, 0.5 mM EDTA, 0.02% Triton X-100), and then diluted again to a concentration of 0.4 nM in a 1×kinase reaction buffer. As a substrate cocktail, a RON-specific substrate mixed solution (40 uM ULight-labeled Poly GT, 100 nM ATP) was prepared at a concentration 2 times the final reaction concentration.
(§1) Thereafter, a 384-well-plate was prepared, and 2.5 μl of each of the diluted compounds of Examples was added to a corresponding well of experimental group wells, and 2.5 μl of a 4% DMSO solution was dispensed into high control wells and low control wells.
(§2) Thereafter, 2.5 μL of 0.4 nM RON was dispensed into each of the high control wells and the experimental group wells, and 2.5 μL of the 1× kinase reaction buffer was added to the low control wells, and all the wells were centrifuged at room temperature for 40 seconds at 1,000 RPM, and then incubated at room temperature for 20-30 minutes. Then, 5 uL of the substrate cocktail (2×) was dispensed into each well, and all the wells were centrifuged at room temperature for 40 seconds at 1,000 RPM, and then incubated at room temperature for 60 minutes. Thereafter, 5 uL of 30 mM EDTA was added to each well to terminate the reaction, and all the wells were then incubated again at room temperature for 5 minutes. Thereafter, 5 uL of a 4× phosphotyrosine antibody (Perkin Elmer) containing europium was added to each well, and all the wells were then incubated at room temperature for 60 minutes. After the incubation, the 384-well-plate was read with the Vison plate reader. In this case, the excitation wavelength was 340 nm, and the emission wavelength was 620 nm and 665 nm. The IC50 value of each compound of Examples was derived using the GraphPd Prism7 program.

A further experiment concerns the target cMET (Homo sapiens, UniProt P08581). As to the kind of experiment: Evaluation of inhibitory activity against MET (TR-FRET kinase assay). The experiment is classed as biochemical. The note with it: cMET protein, TK peptide substrate. As for the experimental part: In addition, in order to measure the enzyme activity inhibition for cMET, the evaluation was performed in the same manner as the enzyme activity inhibition measurement experiment for RON.
Specifically, the compound was prepared to a concentration of 1 mM in 100% DMSO and was diluted 10 times in a stepwise manner through 3-fold dilution. The compound (2 ul) diluted in a stepwise manner was added to a 96-well-plate containing 48 ul of a 1× kinase reaction buffer (50 mM HEPES (pH 7.4), 0.05% BSA, 0.005% Tween-20, 1 mM DTT, 0.5 mM MnCl2, 20 mM MgCl2).
The cMET protein was diluted to a concentration of 263 nM in a cMET storage buffer (50 mM Tris-HCl (pH 7.5), 150 mM NaCl, 0.05% Brij35, 1 mM DTT, 10% Glycerol), and then diluted again to a concentration of 2 nM in a 1× kinase reaction buffer. As a substrate cocktail, a MET-specific substrate mixed solution (5 uM TK peptide, 10 mM ATP) was prepared at a concentration 2 times the final reaction concentration.
as §1
as §2, with “of 2” for “of 0.4”, “nM cMET” for “nM RON”, “the 1×kinase” for “the 1× kinase”, “of 90” for “of 30”

Sequence of cMET (P08581 25-1390): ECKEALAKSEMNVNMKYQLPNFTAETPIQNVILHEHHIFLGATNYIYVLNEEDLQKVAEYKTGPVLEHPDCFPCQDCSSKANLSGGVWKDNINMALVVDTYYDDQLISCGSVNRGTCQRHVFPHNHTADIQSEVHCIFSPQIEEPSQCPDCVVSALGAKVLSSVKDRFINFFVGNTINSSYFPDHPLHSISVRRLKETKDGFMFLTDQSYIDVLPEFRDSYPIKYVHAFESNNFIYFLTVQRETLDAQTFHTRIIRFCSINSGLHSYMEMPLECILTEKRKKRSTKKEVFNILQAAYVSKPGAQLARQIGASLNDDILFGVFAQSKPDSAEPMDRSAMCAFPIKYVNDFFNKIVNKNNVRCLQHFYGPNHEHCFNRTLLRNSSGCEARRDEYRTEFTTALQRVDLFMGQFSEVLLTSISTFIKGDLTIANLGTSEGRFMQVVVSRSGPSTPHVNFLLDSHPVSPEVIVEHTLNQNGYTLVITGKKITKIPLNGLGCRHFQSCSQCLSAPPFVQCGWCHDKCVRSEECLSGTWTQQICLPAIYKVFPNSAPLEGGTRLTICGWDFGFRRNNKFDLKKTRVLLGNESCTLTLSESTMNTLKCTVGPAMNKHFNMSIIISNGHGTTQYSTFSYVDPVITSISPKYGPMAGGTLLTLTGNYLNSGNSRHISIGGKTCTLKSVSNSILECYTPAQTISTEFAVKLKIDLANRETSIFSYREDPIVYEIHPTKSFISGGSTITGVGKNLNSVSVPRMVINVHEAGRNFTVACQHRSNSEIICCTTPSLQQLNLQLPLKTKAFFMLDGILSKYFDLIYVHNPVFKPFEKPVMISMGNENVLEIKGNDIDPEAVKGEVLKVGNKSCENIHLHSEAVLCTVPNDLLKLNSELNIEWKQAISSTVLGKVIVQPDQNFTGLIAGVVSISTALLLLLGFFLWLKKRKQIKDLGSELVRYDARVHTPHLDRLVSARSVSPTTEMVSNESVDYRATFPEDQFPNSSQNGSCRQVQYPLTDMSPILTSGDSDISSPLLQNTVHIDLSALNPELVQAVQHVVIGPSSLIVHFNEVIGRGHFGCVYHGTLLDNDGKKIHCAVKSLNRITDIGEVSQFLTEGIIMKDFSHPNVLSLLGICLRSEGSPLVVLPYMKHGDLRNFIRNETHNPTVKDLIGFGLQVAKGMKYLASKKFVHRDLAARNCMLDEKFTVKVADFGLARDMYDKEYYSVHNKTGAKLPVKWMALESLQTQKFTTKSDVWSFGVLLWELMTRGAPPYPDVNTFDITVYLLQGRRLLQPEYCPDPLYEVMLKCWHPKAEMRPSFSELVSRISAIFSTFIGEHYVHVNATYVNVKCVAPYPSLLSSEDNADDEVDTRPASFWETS
Sequence of RON (Q04912 25-1400, species assumed): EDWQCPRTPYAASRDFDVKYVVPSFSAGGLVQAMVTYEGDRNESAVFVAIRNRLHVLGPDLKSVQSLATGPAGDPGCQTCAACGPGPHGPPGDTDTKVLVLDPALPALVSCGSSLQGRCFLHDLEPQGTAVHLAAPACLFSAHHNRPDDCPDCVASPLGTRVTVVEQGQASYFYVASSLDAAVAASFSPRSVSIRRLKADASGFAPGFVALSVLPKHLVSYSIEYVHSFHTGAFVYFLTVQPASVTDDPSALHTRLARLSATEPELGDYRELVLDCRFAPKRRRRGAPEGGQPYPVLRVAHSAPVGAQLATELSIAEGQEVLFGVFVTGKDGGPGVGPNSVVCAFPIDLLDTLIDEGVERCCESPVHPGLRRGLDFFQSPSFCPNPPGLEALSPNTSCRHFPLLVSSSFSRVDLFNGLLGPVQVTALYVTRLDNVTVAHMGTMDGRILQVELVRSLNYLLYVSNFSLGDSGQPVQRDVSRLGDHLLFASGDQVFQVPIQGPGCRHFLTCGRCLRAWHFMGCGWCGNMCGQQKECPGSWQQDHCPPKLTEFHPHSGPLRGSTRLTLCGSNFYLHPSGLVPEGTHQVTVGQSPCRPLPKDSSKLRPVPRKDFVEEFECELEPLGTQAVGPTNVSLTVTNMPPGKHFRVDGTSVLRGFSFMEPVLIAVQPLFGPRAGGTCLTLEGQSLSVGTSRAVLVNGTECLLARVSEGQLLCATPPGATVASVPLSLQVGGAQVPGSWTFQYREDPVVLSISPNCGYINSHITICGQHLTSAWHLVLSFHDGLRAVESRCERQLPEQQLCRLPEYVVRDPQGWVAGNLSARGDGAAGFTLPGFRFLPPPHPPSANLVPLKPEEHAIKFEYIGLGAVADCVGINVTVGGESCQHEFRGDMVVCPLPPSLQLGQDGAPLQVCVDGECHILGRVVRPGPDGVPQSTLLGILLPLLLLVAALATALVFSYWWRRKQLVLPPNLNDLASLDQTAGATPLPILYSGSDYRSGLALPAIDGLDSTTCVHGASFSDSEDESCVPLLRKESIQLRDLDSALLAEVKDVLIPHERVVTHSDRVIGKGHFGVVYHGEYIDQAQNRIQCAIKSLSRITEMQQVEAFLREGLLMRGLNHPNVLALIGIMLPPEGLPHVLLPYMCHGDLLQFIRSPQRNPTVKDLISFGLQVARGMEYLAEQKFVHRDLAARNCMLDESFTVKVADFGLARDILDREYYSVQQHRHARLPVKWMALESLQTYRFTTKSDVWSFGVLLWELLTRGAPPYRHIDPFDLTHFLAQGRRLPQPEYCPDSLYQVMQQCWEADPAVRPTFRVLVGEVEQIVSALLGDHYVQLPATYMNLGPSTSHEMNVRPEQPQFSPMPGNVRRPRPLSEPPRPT

As for `Nc1nccc(Oc2ccc(NC(=O)c3cnn(-c4ccccc4)c3C(F)(F)F)cc2F)c1I` [Example 43, N-(4-((2-amino-3-iodopyridin-4-yl)oxy)-3-fluorophenyl)-1-phenyl-5-(trifluoromethyl)-1H-pyrazole-4-carboxamide], the IC50 against RON is < 50 nM; on cMET it was > 5000 nM.
On to `C=CC(=O)N(C(=O)C=C)c1nccc(Oc2ccc(NC(=O)c3ncn(-c4ccccc4)c3C(F)(F)F)cc2F)c1Cl` [Example 22], for which the IC50 against RON is 50 to 500 nM; on cMET, > 5000 nM.
For `CCOC(=O)Nc1c(Oc2ccc(NC(=O)c3cnn(-c4ccccc4)c3C(F)(F)F)cc2F)ccnc1N` [Example 34, Ethyl(2-amino-4-(2-fluoro-4-(1-phenyl-5-(trifluoromethyl)-1H-pyrazole-4-carboxamido)phenoxy)pyridin-3-yl)carbamate], the IC50 at RON was 50 to 500 nM; on cMET, > 5000 nM.
For `Nc1ncnc(Oc2ccc(NC(=O)c3cn(-c4ccccc4)nn3)cc2F)c1Cl` [Example 54, N-[4-(6-amino-5-chloro-pyrimidin-4-yl)oxy-3-fluorophenyl]-1-phenyl-triazole-4-carboxamide], in that order: > 5000 nM and > 5000 nM.
In the case of `CCc1c(C(=O)Nc2ccc(Oc3ncnc(N)c3Cl)c(F)c2)cnn1-c1ccccc1` [Example 47], the IC50 on RON was 50 to 500 nM; against cMET, > 5000 nM.
For `Nc1nccc(Oc2ccc(NC(=O)c3cnn(Cc4ccccc4)c3C(F)(F)F)cc2F)c1Cl` [Example 13, N-(4-((2-amino-3-chloropyridin-4-yl)oxy)-3-fluorophenyl)-1-benzyl-5-(trifluoromethyl)-1H-pyrazole-4-carboxamide], in that order: 500 to 5000 nM and 500 to 5000 nM.
Consider `COc1ccccc1-n1ncc(C(=O)Nc2ccc(Oc3ccnc(N)c3Cl)c(F)c2)c1C(F)(F)F` [Example 16, N-(4-((2-amino-3-chloropyridin-4-yl)oxy)-3-fluorophenyl)-1-(2-methoxyphenyl)-5-(trifluoromethyl)-1H-pyrazole-4-carboxamide], for which the IC50 at RON was 50 to 500 nM; at cMET, > 5000 nM.
For `CC(C)(C)n1ncc(C(=O)Nc2ccc(Oc3ccnc(N)c3Cl)c(F)c2)c1C(F)(F)F` [Example 17, N-(4-((2-amino-3-chloropyridin-4-yl)oxy)-3-fluorophenyl)-1-(tert-butyl)-5-(trifluoromethyl)-1H-pyrazole-4-carboxamide], in that order: 50 to 500 nM and 500 to 5000 nM.
As to `Cc1ccc(-n2ncc(C(=O)Nc3ccc(Oc4ccnc(N)c4Cl)c(F)c3)c2C(F)(F)F)cc1` [Example 15, N-(4-((2-amino-3-chloropyridin-4-yl)oxy)-3-fluorophenyl)-1-(p-tolyl)-5-(trifluoromethyl)-1H-pyrazole-4-carboxamide], the IC50 is > 5000 nM at RON and 500 to 5000 nM against cMET.
For `O=C(Nc1ccc(Oc2ccnc(NC(=O)C3CC3)c2)c(F)c1)c1ncn(-c2ccccc2)c1C(F)(F)F` [Example 26, N-(4-((2-cyclopropanecarboxamido)pyridin-4-yl)oxy-3-fluorophenyl)-1-phenyl-5-(trifluoromethyl)-1H-imidazole-4-carboxamide], the IC50 is 50 to 500 nM against RON and > 5000 nM at cMET.
Take `Nc1nccc(Oc2ccc(NC(=O)c3ncc(-c4ccccc4)s3)cc2F)c1Cl` [Example 32, N-(4-((2-amino-3-chloropyridin-4-yl)oxy)-3-fluorophenyl)-5-phenylthiazole-2-carboxamide]: the IC50 is 500 to 5000 nM on RON and > 5000 nM against cMET.
`Nc1nccc(Oc2ccc(NC(=O)c3cnn(-c4ccccc4)c3C(F)F)cc2F)c1Cl` [Example 6, N-(4-((2-amino-3-chloropyridin-4-yl)oxy)-3-fluorophenyl)-5-(difluoromethyl)-1-phenyl-1H-pyrazole-4-carboxamide]: the results for the IC50 against RON and against cMET were 50 to 500 nM and > 5000 nM, respectively.
With `Nc1nccc(Oc2ccc(NC(=O)c3cnn(-c4ccccc4)c3N)cc2F)c1Cl` [Example 10, 5-amino-N-(4-((2-amino-3-chloropyridin-4-yl)oxy)-3-fluorophenyl)-1-phenyl-1H-pyrazole-4-carboxamide], the figures for the IC50 on RON and at cMET were 500 to 5000 nM and > 5000 nM, respectively.
Taken in the same sequence, the figures for `CN1CCCC(n2ncc(C(=O)Nc3ccc(Oc4ncnc(N)c4Cl)c(F)c3)c2C(F)(F)F)C1` (centres unmarked) [Example 60, N-[4-(6-amino-5-chloro-pyrimidin-4-yl)oxy-3-fluorophenyl]-1-(1-methyl-3-piperidyl)-5-(trifluoromethyl)pyrazole-4-carboxamide] were 500 to 5000 nM and > 5000 nM.
Regarding `Nc1nccc(Oc2ccc(NC(=O)c3ncn(-c4ccccc4)c3C(F)(F)F)cc2F)c1N` [Example 27], the IC50 is 50 to 500 nM on RON and > 5000 nM against cMET.
For `Nc1nccc(Oc2ccc(NC(=O)c3cnn(-c4ccccc4)c3)cc2F)c1Cl` [Example 7, N-(4-((2-amino-3-chloropyridin-4-yl)oxy)-3-fluorophenyl)-1-phenyl-1H-pyrazole-4-carboxamide], in that order: 500 to 5000 nM and > 5000 nM.
For `CCc1c(C(=O)Nc2ccc(Oc3ccnc(N)c3Cl)c(F)c2)cnn1-c1ccccc1` [Example 5, N-(4-((2-amino-3-chloropyridin-4-yl)oxy)-3-fluorophenyl)-5-ethyl-1-phenyl-1H-pyrazole-4-carboxamide], the IC50 against RON is 50 to 500 nM; against cMET, 500 to 5000 nM.
Taken in the same sequence, the figures for `Nc1nccc(Oc2ccc(NC(=O)c3ncn(-c4ccccc4)c3C(F)(F)F)cc2F)c1I` [Example 29, N-(4-((2-amino-3-iodopyridin-4-yl)oxy)-3-fluorophenyl)-1-phenyl-5-(trifluoromethyl)-1H-imidazole-4-carboxamide] were < 50 nM and 500 to 5000 nM.
Regarding `Nc1nccc(Oc2ccc(NC(=O)c3ccc(-c4ccccc4)s3)cc2F)c1Cl` [Example 33, N-(4-((2-amino-3-chloropyridin-4-yl)oxy)-3-fluorophenyl)-5-phenylthiophene-2-carboxamide], the IC50 against RON is 50 to 500 nM; on cMET, > 5000 nM.
For `Cc1nn(-c2ccccc2)c(C)c1C(=O)Nc1ccc(Oc2ncnc(N)c2Cl)c(F)c1` [Example 48, N-(4-((6-amino-5-chloro-pyrimidin-4-yl)oxy)-3-fluorophenyl)-3,5-dimethyl-1-phenyl-1H-pyrazole-4-carboxamide], in that order: 50 to 500 nM and > 5000 nM.
`Cc1nn(-c2ccccc2)c(C)c1C(=O)Nc1ccc(Oc2ccnc(N)c2Cl)c(F)c1` [Example 4, N-(4-((2-amino-3-chloropyridin-4-yl)oxy)-3-fluorophenyl)-3,5-dimethyl-1-phenyl-1H-pyrazole-4-carboxamide]: the IC50 against RON is 50 to 500 nM; against cMET, > 5000 nM.
Taken in the same sequence, the figures for `Nc1nccc(Oc2ccc(NC(=O)c3cnn(-c4ccccc4)c3F)cc2F)c1Cl` [Example 20, N-(4-((2-amino-3-chloropyridin-4-yl)oxy)-3-fluorophenyl)-5-fluoro-1-phenyl-1H-pyrazole-4-carboxamide] were 50 to 500 nM and > 5000 nM.
